How the values were obtained:
[1] = target: T1, muscle-type nicotinic acetylcholine receptor (nAChR) (Torpedo marmorata, UniProt P02711+Q6S3H8+Q6S3H9+Q6S3I0); assay: two-electrode voltage clamp, ACh concentration-current curve (agonist); assay type: cell-based
T1 construct: gene CHRNA1; native nAChR purified from electroplax, reconstituted in asolectin lipids and microtransplanted to Xenopus oocytes; with β, γ and δ subunits of the heteropentamer

[2] = target: T1, muscle-type nicotinic acetylcholine receptor (nAChR); assay: two-electrode voltage clamp, inhibition of currents evoked by […] ACh at −[…] mV; assay type: cell-based

T1 sequence (P02711 25-461): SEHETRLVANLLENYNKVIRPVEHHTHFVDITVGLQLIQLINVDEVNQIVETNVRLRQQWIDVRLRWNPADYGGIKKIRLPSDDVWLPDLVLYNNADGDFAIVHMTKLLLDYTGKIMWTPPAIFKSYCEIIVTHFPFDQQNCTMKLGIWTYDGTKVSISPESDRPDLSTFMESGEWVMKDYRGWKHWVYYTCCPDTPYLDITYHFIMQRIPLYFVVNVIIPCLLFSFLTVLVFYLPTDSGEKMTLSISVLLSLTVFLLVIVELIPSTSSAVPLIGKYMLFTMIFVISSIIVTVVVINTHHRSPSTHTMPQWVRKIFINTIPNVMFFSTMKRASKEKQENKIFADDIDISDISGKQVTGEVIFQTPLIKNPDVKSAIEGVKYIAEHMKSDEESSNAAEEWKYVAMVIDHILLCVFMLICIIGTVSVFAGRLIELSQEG
T1 sequence (Q6S3I0 25-493): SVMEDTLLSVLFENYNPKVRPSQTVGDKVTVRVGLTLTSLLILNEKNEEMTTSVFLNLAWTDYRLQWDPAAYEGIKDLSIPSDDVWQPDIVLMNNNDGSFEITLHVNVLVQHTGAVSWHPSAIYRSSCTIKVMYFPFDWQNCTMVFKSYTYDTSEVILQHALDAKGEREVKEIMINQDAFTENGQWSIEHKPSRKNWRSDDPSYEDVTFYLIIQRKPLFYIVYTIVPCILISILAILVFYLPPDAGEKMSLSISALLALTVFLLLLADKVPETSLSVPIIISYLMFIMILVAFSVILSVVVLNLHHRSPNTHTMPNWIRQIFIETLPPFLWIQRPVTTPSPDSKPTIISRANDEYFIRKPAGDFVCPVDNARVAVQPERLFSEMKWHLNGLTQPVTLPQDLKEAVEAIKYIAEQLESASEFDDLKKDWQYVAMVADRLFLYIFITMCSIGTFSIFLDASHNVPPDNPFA
T1 sequence (Q6S3H9 18-505): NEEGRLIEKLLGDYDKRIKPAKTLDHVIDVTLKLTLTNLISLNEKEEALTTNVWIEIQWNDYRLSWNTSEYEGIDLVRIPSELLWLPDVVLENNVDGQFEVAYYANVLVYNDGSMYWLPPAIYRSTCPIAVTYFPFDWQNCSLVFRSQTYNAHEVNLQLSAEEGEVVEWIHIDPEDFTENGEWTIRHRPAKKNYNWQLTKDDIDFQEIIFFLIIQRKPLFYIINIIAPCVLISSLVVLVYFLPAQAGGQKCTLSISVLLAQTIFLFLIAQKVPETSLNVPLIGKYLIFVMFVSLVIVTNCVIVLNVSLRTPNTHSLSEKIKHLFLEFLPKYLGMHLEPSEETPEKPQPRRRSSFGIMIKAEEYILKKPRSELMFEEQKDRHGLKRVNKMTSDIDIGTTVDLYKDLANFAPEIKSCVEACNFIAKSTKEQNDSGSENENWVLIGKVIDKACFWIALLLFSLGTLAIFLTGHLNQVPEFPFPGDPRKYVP
T1 sequence (Q6S3H8 22-522): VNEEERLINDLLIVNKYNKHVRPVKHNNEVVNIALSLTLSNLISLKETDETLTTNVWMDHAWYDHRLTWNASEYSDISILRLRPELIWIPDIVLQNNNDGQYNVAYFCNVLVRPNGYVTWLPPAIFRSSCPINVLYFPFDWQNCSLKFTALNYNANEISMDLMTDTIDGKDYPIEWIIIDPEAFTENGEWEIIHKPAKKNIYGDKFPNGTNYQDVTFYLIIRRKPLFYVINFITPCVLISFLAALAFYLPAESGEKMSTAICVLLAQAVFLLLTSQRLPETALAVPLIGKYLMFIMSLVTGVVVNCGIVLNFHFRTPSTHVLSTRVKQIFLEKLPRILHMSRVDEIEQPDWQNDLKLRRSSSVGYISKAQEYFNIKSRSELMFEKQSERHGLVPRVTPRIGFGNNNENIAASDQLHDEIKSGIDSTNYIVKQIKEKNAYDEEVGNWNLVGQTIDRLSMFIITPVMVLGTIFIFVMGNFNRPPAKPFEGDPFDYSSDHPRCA

Compound	EC50 [1] [µM]	IC50 [2] [µM]
CC(=O)OCC[N+](C)(C)C [ACh, acetylcholine]	46	
CCNCC [DEA, diethylamine]		68

From article PMC4753328, “Muscle-Type Nicotinic Receptor Blockade by Diethylamine, the Hydrophilic Moiety of Lidocaine” (Frontiers in Molecular Neuroscience, 2016)
